Source: patent US5753691A, “Agents for inhibiting the production of IL-1β and the release of TNFα” (Nisshin Flour Milling Co., Ltd., priority 1994, dated 1998)

Columns and labels:
IL-1β = assay: Inhibition of IL-1β production in THP-1 cells stimulated with PMA and polyinosic acid (enzyme immunoassay); type: cell-based; conditions: Homo sapiens, 3×10^6 cells/ml, compound 1 h, then PMA 2 μg/ml and polyinosic acid 200 μg/ml, 24 h, supernatant
Experimental: The pyrrolidinone derivatives of the present invention were evaluated for the activity to inhibit the production of IL-1β, in accordance with the following method.
(§1) Then, 12-o-tetradecanoylphorbol-13-acetate (PMA) and polyinosic acid were added to each well so as to provide final concentrations of 2 μg/ml and 200 μg/ml, respectively. […] After incubation, a supernatant was recovered from each well by means of Pipetteman available from Gilson Co., Ltd. Then, an amount of the IL-1β in the supernatant was assayed by means of the enzyme immunoassay kit available from Cayman Chemical Co., Ltd.
(§2) The results are summarized below, expressed in terms of IC50 values in μM unit, wherein the amount of IL-1β produced at the time of no addition of the pyrrolidinone derivative is defined as 100 and the concentration of each test compound of the present invention to inhibit 50% the IL-1β production is defined as IC50.

TNFα = assay: Inhibition of TNFα release from THP-1 cells stimulated with PMA and polyinosic acid (human TNFα ELISA); type: cell-based; conditions: 3×10^6 cells/ml, compound 1 h, then PMA 2 μg/ml and polyinosic acid 200 μg/ml, 24 h, supernatant
Experimental: The pyrrolidinone derivatives of the present invention were evaluated for the activity to inhibit the release of TNFα, in accordance with the following method.
as §1, with “PMA” for “12-o-tetradecanoylphorbol-13-acetate (PMA)”, “An” for “Then, an”, “TNFα” for “the IL-1β”, “human TNFα ELISA” for “enzyme immunoassay”, “Genzyme” for “Cayman Chemical”
as §2, with “TNFα released” for “IL-1β produced”, “derivatives” for “derivative”, “TNFα release” for “IL-1β production”

IC50 (IL-1β) | IC50 (TNFα) | Structure (SMILES) | cytotoxicity (THP-1 cells)
26 µM | 2.8 µM | O=C(C=Cc1ccccc1)N1CCCC1=O [Compound 1] | 
86 µM |  | COc1ccccc1C=CC(=O)N1CCCC1=O [Compound 2] | 
73 µM |  | COc1cccc(C=CC(=O)N2CCCC2=O)c1 [Compound 3] | 
73 µM |  | COc1ccc(C=CC(=O)N2CCCC2=O)cc1 [Compound 4] | 
69 µM | 16 µM | COc1ccc(C=CC(=O)N2CCCC2=O)cc1OC [Compound 5] | 
13 µM | 3 µM | O=C(C=Cc1ccc([N+](=O)[O-])cc1)N1CCCC1=O [Compound 9] | 
 |  | O=C(C=Cc1ccc([N+](=O)[O-])cc1[N+](=O)[O-])N1CCCC1=O [Compound 10] | no cytotoxicity was found
1.4 µM | 4.6 µM | O=C(C=Cc1ccccn1)N1CCCC1=O [Compound 12] | 
48 µM | 30 µM | O=C(C=Cc1cccnc1)N1CCCC1=O [Compound 13] | 
42 µM |  | O=C(C=Cc1ccncc1)N1CCCC1=O [Compound 14] | 
